Values quoted from earlier work, collected in patent US6022558A, “Transdermal preparations of oxicams” (priority 1997, dated 2000).

Columns and labels:
[1] = rats and rabbits
[2] = oral administration
[3] = single or multiple doses in patients

In the case of `CN1C(C(=O)Nc2ccccn2)=C(O)c2ccccc2S1(=O)=O` [piroxicam, 4-hydroxyl-2-methyl-N-(2-pyridyl)-2H-1,2-benzo-thiazine-3-carboxamide-1,1-dioxide], the “Oral absorption” value [1] is listed as “almost completely absorbed”, the “Second plasma maximum” value [2] is listed as “shows a second maximum plasma concentration due to hepatic and intestinal recycling” and the “Cmax and AUC dependence on dose” value [3] is listed as “proportional to the dose administered”. For the same compound, the “Pharmacokinetic linearity” value [3] was “possessed a linear pharmacokinetic property”.
